We go through three molecules from article PMC6155738, “Antiparasitic Activity of Sulfur- and Fluorine-Containing Bisphosphonates against Trypanosomatids and Apicomplexan Parasites” (Molecules : A Journal of Synthetic Chemistry and Natural …, 2017).

The target in the assay is T1, TgFPPS (Toxoplasma gondii, UniProt Q197X6).
T1 construct: gene FPPS; bifunctional enzyme making FPP and GGPP; enzyme assay as in Szajnman et al., 2008
T1 sequence (Q197X6 1-646): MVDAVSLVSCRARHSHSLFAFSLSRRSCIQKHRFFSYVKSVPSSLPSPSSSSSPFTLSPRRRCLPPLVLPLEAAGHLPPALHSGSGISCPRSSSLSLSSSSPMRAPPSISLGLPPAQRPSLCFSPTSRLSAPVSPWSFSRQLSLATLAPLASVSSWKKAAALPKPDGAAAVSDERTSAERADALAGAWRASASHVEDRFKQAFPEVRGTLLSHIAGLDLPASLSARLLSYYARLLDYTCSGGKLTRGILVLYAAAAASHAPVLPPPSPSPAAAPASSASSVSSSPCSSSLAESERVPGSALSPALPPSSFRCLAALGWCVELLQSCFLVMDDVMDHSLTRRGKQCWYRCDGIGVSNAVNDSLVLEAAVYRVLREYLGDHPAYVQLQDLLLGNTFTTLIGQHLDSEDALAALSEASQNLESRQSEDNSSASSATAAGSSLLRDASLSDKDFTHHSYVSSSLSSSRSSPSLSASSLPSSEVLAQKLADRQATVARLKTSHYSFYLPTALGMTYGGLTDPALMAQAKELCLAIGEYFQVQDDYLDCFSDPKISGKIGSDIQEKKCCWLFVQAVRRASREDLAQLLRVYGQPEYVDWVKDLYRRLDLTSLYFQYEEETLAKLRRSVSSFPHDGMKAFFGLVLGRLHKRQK
The assay is described as follows: FPPS enzymatic activity assay. It counts as biochemical. The source says:
FPPS enzymatic activity assay on TgFPPS
Consider `C=C(C)CNCC(P(=O)(O)O)P(=O)(O)O` [compound 19, 1-[(2-Methylall-1-ylamino)ethyl] 1,1-bisphosphonic Acid], for which half-maximal inhibition (IC50) required 183 ± 63 nM.

As to `CC(C)=CCC/C(C)=C/CSCC(P(=O)(O)O)P(=O)(O)O` [compound 44, 1-[((E)-3,7-Dimethylocta-2,6-diene-1-thio)ethyl] 1,1-bisphosphonic Acid], the IC50 (as a rule, the concentration at which inhibition is half-maximal) worked out at 313 ± 27 nM.

For the molecule `CCCCNCC(F)(P(=O)(O)O)P(=O)(O)O` [compound 55, 1-[(n-But-1-ylamino)ethyl]-1-fluoro-1,1-bisphosphonic Acid], the IC50 was 91 ± 32 nM. Compared with the last molecule, the IC50 is about 3.4-fold lower.
